pIC50: −log10 of the molar value.
Columns and labels:
[1] = molecular target: T1, BCDIN3D (Homo sapiens, UniProt Q7Z5W3); experiment: BCDIN3D InCellPulse thermal stability assay in transfected A549 cells; assay type: cell-based; settings: heat shock 58° C. 15 min
T1 sequence (Q7Z5W3 1-292): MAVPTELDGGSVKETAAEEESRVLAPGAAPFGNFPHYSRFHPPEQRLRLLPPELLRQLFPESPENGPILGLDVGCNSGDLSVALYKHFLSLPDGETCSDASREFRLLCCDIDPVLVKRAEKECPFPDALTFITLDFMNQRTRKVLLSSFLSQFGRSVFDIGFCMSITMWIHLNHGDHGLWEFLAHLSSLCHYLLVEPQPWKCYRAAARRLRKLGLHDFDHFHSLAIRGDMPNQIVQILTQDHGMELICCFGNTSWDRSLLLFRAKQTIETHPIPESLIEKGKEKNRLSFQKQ
Protocol: BCDIN3D InCellPulse™ Assay
The thermal stability assay was performed with lipofectamine 3000 transiently transfected A549 using the plasmid pICP-ePL-BCDIN3 Da. This plasmid encodes for BCDIN3D N-terminally fused to a Prolabel (ePL), complementing a split β-Galactosidase Enzyme System InCELL Pulse Technology (InCELL Hunter Detection Kit, DiscoverX/Eurofins, cat: 96-0079L). 20 μl A549 cells (1500 cell/well) were added with a multidrop device to compounds to a final DMSO concentration of 0.6% in 384-well polypropylene plate format in IMDM medium and pre-incubated with the compounds for 1 h at 37° C. and 5% CO2. Subsequently, a heat shock was applied to the entire sealed plate in a 58° C. water bath for 15 min. The plates were cooled to RT, spun down and 25 μl/well of EA Detection Solution at 3.3× (InCELL Hunter Detection Kit) was added per well. 21 μl of the mixture was added to a black 384-well measurement plate (Corning, PS, black, Flat Bottom, #3575), mix for 30 minutes on a plate shaker at RT. Finally, the luminescence was measured with a Perkin Elmer EnVision with 0.2 s measurement time in luminescence mode.

[2] = molecular target: T1, BCDIN3D; experiment: BCDIN3D IC50 RFMS (RapidFire) assay with mini-helix; assay type: biochemical; settings: 25 nM enzyme
Outline: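 25 nM enzyme preincubated 10 min at room temperature with compound (1% DMSO) in 25 mM Tris pH 8.0, 10 mM DTT, 1 mM EDTA, 0.03% BSA. Reaction started with 0.2 μM mini-helix plus 6 μM SAM, run 1 h at 37 °C, quenched with TCA; SAH product quantified by RapidFire MS against isotopic SAH standards.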

[3] = transiently transfected A549 cells
[4] = mini-helix substrate 0.2 μM, SAM 6 μM
[5] = A549 cells transiently transfected with ePL-BCDIN3D, 1 h pre-incubation
[6] = mini-helix 0.2 μM and SAM 6 μM as substrates, 1 hr at 37° C.

pIC50 [1, 3] | pIC50 [2, 4] | pIC50 [1, 5] | pIC50 [2, 6] | SMILES
6.28 | 6.42 |  |  | Cn1ncc2c(NC(C)(C)C)nc(NCC(N)c3ccccc3F)nc21 (stereo not drawn) [Compound 5.13, N6-[2-amino-2-(2-fluorophenyl)ethyl]-N4-tert-butyl-1-methyl-pyrazolo[3,4-d]pyrimidine-4,6-diamine]
4.93 | 5.15 |  |  | Cn1ncc2c(NCc3ccc(C(F)(F)F)nc3)nc(NCC3(N)CC3)nc21 [Compound 2.19, 6-N-[(1-aminocyclopropyl)methyl]-1-methyl-4-N-[[6-(trifluoromethyl)pyridin-3-yl]methyl]pyrazolo[3,4-d]pyrimidine-4,6-diamine]
 |  | 4.97 | 5.25 | Cn1ncc2c(Nc3ccc(C(F)(F)F)cc3)nc(N[C@H]3COC[C@H]3N)nc21 [Compound 1.36, N6-[(3R,4S)-4-aminotetrahydrofuran-3-yl]-1-methyl-N4-[4-(trifluoromethyl)phenyl]pyrazolo[3,4-d]pyrimidine-4,6-diamine]
7.25 | 6.90 |  |  | Cn1ncc2c(Nc3ccc(C(F)(F)F)cc3)nc(NCC(N)c3ccccc3Cl)nc21 (stereo not drawn) [Compound 5.09, 6-N-[2-amino-2-(2-chlorophenyl)ethyl]-1-methyl-4-N-[4-(trifluoromethyl)phenyl]pyrazolo[3,4-d]pyrimidine-4,6-diamine]
6.92 | 7.15 |  |  | Cn1ncc2c(NC(C)(C)C)nc(NCC(N)c3cccc(C4CC4)c3)nc21 (stereo not drawn) [Compound 5.32, N6-[2-amino-2-(3-cyclopropylphenyl)ethyl]-N4-tert-butyl-1-methyl-1H-pyrazolo[3,4-d]pyrimidine-4,6-diamine]
5.18 | 5.79 |  |  | Cn1ncc2c(Nc3ccc(C(F)(F)F)nc3)nc(NCC3(N)CCOC3)nc21 (stereo not drawn) [Compound 3.15, N6-[(3-aminotetrahydrofuran-3-yl)methyl]-1-methyl-N4-[6-(trifluoromethyl)-3-pyridyl]pyrazolo[3,4-d]pyrimidine-4,6-diamine]
5.30 | 5.78 |  |  | Cn1ncc2c(Nc3ccc(F)cc3F)nc(NCC3(N)CC3)nc21 [Compound 2.05, 6-N-[(1-aminocyclopropyl)methyl]-4-N-(2,4-difluorophenyl)-1-methylpyrazolo[3,4-d]pyrimidine-4,6-diamine]
6.06 | 6.71 |  |  | Cn1ncc2c(NC(C)(C)C)nc(NCC(N)c3ccccc3)nc21 (stereo not drawn) [Compound 4.50, 6-N-(2-amino-2-phenylethyl)-4-N-tert-butyl-1-methylpyrazolo[3,4-d]pyrimidine-4,6-diamine]
6.63 | 7.48 |  |  | Cn1ncc2c(Nc3ccc(Cl)c(Cl)c3)nc(NCC3(N)CC3)nc21 [Compound 2.40, 6-N-[(1-aminocyclopropyl)methyl]-4-N-(3,4-dichlorophenyl)-1-methylpyrazolo[3,4-d]pyrimidine-4,6-diamine]
 |  | 5.38 | 5.58 | CC(C)Oc1nc(NCC(N)c2ccccc2)nc2c1cnn2C (stereo not drawn) [Compound 6.04, N′-(1-methyl-4-propan-2-yloxypyrazolo[3,4-d]pyrimidin-6-yl)-1-phenylethane-1,2-diamine]
6.58 | 6.89 |  |  | Cn1ncc2c(NC3CC(C#N)C3)nc(NC[C@H](N)c3ccccc3)nc21 (stereo partly drawn) [Compound 4.91, 3-[[6-[[(2R)-2-amino-2-phenyl-ethyl]amino]-1-methyl-pyrazolo[3,4-d]pyrimidin-4-yl]amino]cyclobutanecarbonitrile]
5.71 | 5.56 |  |  | Cn1ncc2c(NC3(C)CC3)nc(NC[C@H](N)c3ccccc3)nc21 [Compound 4.77, N6-[(2R)-2-amino-2-phenyl-ethyl]-1-methyl-N4-(1-methylcyclopropyl)pyrazolo[3,4-d]pyrimidine-4,6-diamine]
6.86 | 7.06 |  |  | Cn1ncc2c(NCc3cccc(Br)c3)nc(NCC(N)c3ccccc3)nc21 (stereo not drawn) [Compound 4.06, 6-N-(2-amino-2-phenylethyl)-4-N-[(3-bromophenyl)methyl]-1-methylpyrazolo[3,4-d]pyrimidine-4,6-diamine]
 |  | 5.38 | 6.74 | Cn1ncc2c(NC(C)(C)C)nc(NC[C@@H](N)c3ccccc3F)nc21 [Compound 7.11, N6-[(2S)-2-amino-2-(2-fluorophenyl)ethyl]-N4-tert-butyl-1-methyl-pyrazolo[3,4-d]pyrimidine-4,6-diamine]
5.75 | 6.26 |  |  | Cc1nn(C)c2nc(NCC3(N)CC3)nc(Nc3ccc(C(F)(F)F)cc3)c12 [Compound 2.30, 6-N-[(1-aminocyclopropyl)methyl]-1,3-dimethyl-4-N-[4-(trifluoromethyl)phenyl]pyrazolo[3,4-d]pyrimidine-4,6-diamine]
5.59 | 6.36 |  |  | Cn1ncc2c(Nc3ccc(Cl)c(C#N)c3)nc(NCC3(N)CC3)nc21 [Compound 2.17, 5-[[6-[(1-aminocyclopropyl)methylamino]-1-methyl-pyrazolo[3,4-d]pyrimidin-4-yl]amino]-2-chloro-benzonitrile]
5.85 | 6.70 |  |  | Cn1ncc2c(Nc3ccc(OC(F)F)cc3)nc(NCC3(N)CC3)nc21 [Compound 2.34, 6-N-[(1-aminocyclopropyl)methyl]-4-N-[4-(difluoromethoxy)phenyl]-1-methylpyrazolo[3,4-d]pyrimidine-4,6-diamine]
5.60 | 5.67 |  |  | Cn1ncc2c(NC(C)(C)C3CCOCC3)nc(NC[C@H](N)c3ccccc3)nc21 [Compound 4.118, N6-[(2R)-2-amino-2-phenyl-ethyl]-1-methyl-N4-(1-methyl-1-tetrahydropyran-4-yl-ethyl)pyrazolo[3,4-d]pyrimidine-4,6-diamine]
 |  | 4.97 | 5.65 | COc1ccc(CNc2nc(NCCN)nc3c2cnn3C)c(OC)c1 [Compound 1.24, N6-(2-aminoethyl)-N4-[(2,4-dimethoxyphenyl)methyl]-1-methyl-1H-pyrazolo[3,4-d]pyrimidine-4,6-diamine]
5.73 | 5.88 |  |  | COCC(C)(C)Nc1nc(NC[C@H](N)c2ccccc2)nc2c1cnn2C [Compound 4.100, N6-[(2R)-2-amino-2-phenyl-ethyl]-N4-(2-methoxy-1,1-dimethyl-ethyl)-1-methyl-pyrazolo[3,4-d]pyrimidine-4,6-diamine]
6.29 | 6.18 |  |  | Cn1ncc2c(NC3CC34CC4)nc(NC[C@H](N)c3ccccc3)nc21 (stereo partly drawn) [Compound 4.80, N6-[(2R)-2-amino-2-phenyl-ethyl]-1-methyl-N4-spiro[2.2]pentan-2-yl-pyrazolo[3,4-d]pyrimidine-4,6-diamine]
5.70 | 6.86 |  |  | Cn1ncc2c(Nc3ccc(C(F)F)cc3)nc(NCC3(N)CC3)nc21 [Compound 2.36, 6-N-[(1-aminocyclopropyl)methyl]-4-N-[4-(difluoromethyl)phenyl]-1-methylpyrazolo[3,4-d]pyrimidine-4,6-diamine]
 |  | 5.53 | 5.41 | Cn1ncc2c(NC3CC3)nc(NC[C@H](N)c3ccccc3)nc21 [Compound 7.04, N6-[(2R)-2-amino-2-phenyl-ethyl]-N4-cyclopropyl-1-methyl-pyrazolo[3,4-d]pyrimidine-4,6-diamine]
5.58 | 5.36 |  |  | C[C@H](Nc1nc(NC[C@H](N)c2ccccc2)nc2c1cnn2C)C1CC1 [Compound 4.102, N6-[(2R)-2-amino-2-phenyl-ethyl]-N4-[(1S)-1-cyclopropylethyl]-1-methyl-pyrazolo[3,4-d]pyrimidine-4,6-diamine]
6.65 | 6.96 |  |  | Cn1ncc2c(N[C@H]3C[C@H](F)C3)nc(NC[C@H](N)c3ccccc3)nc21 [Compound 4.89, N6-[(2R)-2-amino-2-phenyl-ethyl]-N4-(3-fluorocyclobutyl)-1-methyl-pyrazolo[3,4-d]pyrimidine-4,6-diamine]
7.35 | 8.21 |  |  | Cn1ncc2c(NCC3CC34CC4)nc(NC[C@H](N)c3ccccc3)nc21 (stereo partly drawn) [Compound 4.60, N6-[(2R)-2-amino-2-phenyl-ethyl]-1-methyl-N4-(spiro[2.2]pentan-2-ylmethyl)pyrazolo[3,4-d]pyrimidine-4,6-diamine]

SMILES | pIC50 [1, 3] | pIC50 [2, 4] | pIC50 [1, 5] | pIC50 [2, 6]
Cc1ccc(CNc2nc(NC[C@@H](N)CF)nc3c2cnn3C)cc1Cl [Compound 7.14, 6-N-[(2R)-2-amino-3-fluoropropyl]-4-N-[(3-chloro-4-methylphenyl)methyl]-1-methylpyrazolo[3,4-d]pyrimidine-4,6-diamine] |  |  | 5.20 | 5.25

Reference: patent US20220370453A1 (Storm Therapeutics Ltd, priority 2019, published 2022)
